In US7091174B2, “Caloxins” (McMaster University, priority 2000, dated 2006):
Ends that are not written are not given here.

Experiments:
[1] = molecular target: T1, erythrocyte leaky ghost Ca^2+—Mg^2+-ATPase (PM Ca^2+ pump) (Homo sapiens, UniProt P23634); assay: Ca2+-Mg2+-ATPase assay with human erythrocyte leaky ghosts (fluorometric coupled enzyme assay); type: biochemical
T1 construct: Human erythrocyte leaky ghosts (Jarrett et al. (1978)) were assayed for ATPase; from tissue; host or cells: human erythrocyte leaky ghosts prepared from human blood
Procedure: FIG. 1A is a graph showing Ca^2+—Mg^2+-ATPhase inhibition by caloxin 2A1. Human erythrocyte leaky ghosts (Jarrett et al. (1978)) were assayed for ATPase as described previously (Niggli et al. (1981); Grover (1988)) but by fluorometry. The drawn curve is from a total of 32 data points. Error bars where shown are SEM values.
The present invention includes all caloxins isolated according to the method of the invention. Caloxins can be tested for their ability to inhibit the plasma membrane Ca^2+-pump using various assays. In particular, PM Ca^2+ pump is a Ca^2+—Mg^2+-ATPase that binds ATP in presence of Ca^2+ to form an acylphosphate which is then hydrolysed upon Ca^2+ translocation (Guerini (1998)). The effect of caloxins on PM Ca^2+ pump can be tested in two assays using human erythrocyte leaky ghosts: Ca^2+—Mg^2+-ATPase and acylphosphate formation. In particular the inventors have shown that caloxin 2A-1 inhibits erythrocyte leaky ghost Ca^2+—Mg^2+-ATPase (FIG. 1A) producing 50% inhibition at 0.4±0.1 mM. Caloxin 2A-1 inhibits the PM Ca^2+-pump selectively. At a concentration of 0.9 mM, caloxin 2A1 inhibits the erythrocyte ghost Ca^2+—Mg^2+-ATPase by 78±4% but with no effect on Mg^2+-ATPase or Na^+—K^+-ATPase in the ghosts or the Ca^2+—Mg^2+-ATPase in skeletal muscle sarcoplasmic reticulum (FIG. 1B). The inhibition is selective to caloxin 2A1 because 0.9 mM of a peptide with randomized caloxin 2A1 sequence (SWSSFPGSGGVSNPN-amide, SEQ.ID.NO.5) has no effect (FIG. 1B) neither does the large mixture of peptides contained in the casein pancreatic hydrolysate (data not shown). Thus, caloxin 2A1 is selective in that it inhibits the PM Ca^2+-pump and not other ATPases. […] Caloxin 2A1 was selected by binding to a PMCA1 sequence but it inhibits PM Ca^2+-pump in erythrocyte ghosts which express mainly PMCA4. This finding is consistent with the high degree of similarity between sequences of PMCA genes in this domain (Swiss Protein Bank accession numbers P20020, Q01814, Q16720, P23634) although we have not ruled out that caloxin 2A1 has different affinities for each isoform. The second PM Ca^2+-pump assay consisted of Ca^2+-dependent formation of the acid stable 140 kDa acylphosphate intermediate from ^32P-γ-ATP in erythrocyte leaky ghosts.
1.2. Ca^2+—Mg^2+-ATPase assay with human erythrocyte leaky ghosts: A major hurdle was the lack of an appropriate assay. The difficulties were: (a) calmodulin needed for the PM Ca^2+ pump activity binds on the cytosolic surface of the pump protein and caloxins by definition bind on the outside surface, (b) most tissues have very active ecto-Mg^2+-ATPase and an ER Ca^2+—Mg^2+-ATPase—the latter can be inhibited by thapsigargin but the former poses a major problem. Erythrocyte ghosts contain mostly plasma membrane. Finally we used human erythrocyte ghosts which have low ecto-Mg^2+-ATPase. Fluorometric coupled enzyme assays are more sensitive. We purchased microcuvettes (100–150 μl) for our fluorometer (SPEX Fluorolog 112) with a heated chamber (37° C.) and made the appropriate cuvette adapter. We first monitor basal Mg^2+-ATPhase as slope for the disappearance of NADH fluorescence (ex=340, em=440 nm) in a solution containing 0.2–0.4 mg ghost protein, 0.1 mM ouabain, 100 mM NaCl, 20 mM KCl, 6 mM MgCl2, 30 mM imidazole-HCl pH 7.0, 0.5 mM EDTA, 0.6 mM NADH, 1 mM pyruvate enol phosphate, excess pyruvate kinase-[…], 0.5 mM ATP, 0.5 mM EGTA and 4 ug/ml calmodulin. […] Na^+—K^+-ATPase can be monitored without CaCl2 and ouabain.

pig coronary artery = assay: Endothelium dependent relaxation of pig coronary artery pre-contracted with KCl; settings: pig coronary artery precontracted with KCl, FIG. 3
[2] = molecular target: T2, PM Ca^2+-pump 140 kDa acylphosphate intermediate (Homo sapiens, UniProt P23634); assay: Ca2+-dependent acylphosphate formation from 32P-gamma-ATP in erythrocyte leaky ghosts; type: biochemical; settings: 3.4 mM peptide, FIG. 1C
T2 construct: from tissue; host or cells: human erythrocyte leaky ghosts
Procedure: FIG. 1C is gel showing acylphosphate formation with 3.4 mM caloxin 2A1 or a random peptide. The acylphosphate reaction was carried out and samples analyzed by acid gel electrophoresis as previously described (Grover et al. (1988); Wuytack et al. (1984)). EGTA=1 mM, and CaCl2=0.05 mM.
(§1) The present invention includes all caloxins isolated according to the method of the invention. Caloxins can be tested for their ability to inhibit the plasma membrane Ca^2+-pump using various assays. In particular, PM Ca^2+ pump is a Ca^2+—Mg^2+-ATPase that binds ATP in presence of Ca^2+ to form an acylphosphate which is then hydrolysed upon Ca^2+ translocation (Guerini (1998)). The effect of caloxins on PM Ca^2+ pump can be tested in two assays using human erythrocyte leaky ghosts: Ca^2+—Mg^2+-ATPase and acylphosphate formation. In particular the inventors have shown that caloxin 2A-1 inhibits erythrocyte leaky ghost Ca^2+—Mg^2+-ATPase (FIG. 1A) producing 50% inhibition at 0.4±0.1 mM. Caloxin 2A-1 inhibits the PM Ca^2+-pump selectively. At a concentration of 0.9 mM, caloxin 2A1 inhibits the erythrocyte ghost Ca^2+—Mg^2+-ATPase by 78±4% but with no effect on Mg^2+-ATPase or Na^+—K^+-ATPase in the ghosts or the Ca^2+—Mg^2+-ATPase in skeletal muscle sarcoplasmic reticulum (FIG. 1B). […]

[3] = system: Mg^2+-ATPase in the ghosts; assay: Mg2+-ATPase in erythrocyte ghosts; type: biochemical, human; settings: 0.9 mM
Description: (§2) FIG. 1B is a bar graph showing the selectivity of caloxin 2A1 for inhibition of PM Ca^2+—Mg^2+-ATPase using caloxin 2A1 or a random peptide (RP). G=ghosts and S=skeletal muscle sarcoplasmic reticulum, Type of ATPhase activity monitored is shown as Ca^2+—Mg^2+, Mg^2+ or Na^+—K^+-ATPase.
(§3) The present invention includes all caloxins isolated according to the method of the invention. Caloxins can be tested for their ability to inhibit the plasma membrane Ca^2+-pump using various assays. In particular, PM Ca^2+ pump is a Ca^2+—Mg^2+-ATPase that binds ATP in presence of Ca^2+ to form an acylphosphate which is then hydrolysed upon Ca^2+ translocation (Guerini (1998)). The effect of caloxins on PM Ca^2+ pump can be tested in two assays using human erythrocyte leaky ghosts: Ca^2+—Mg^2+-ATPase and acylphosphate formation. […]
(§4) 1.2. […] We first monitor basal Mg^2+-ATPhase as slope for the disappearance of NADH fluorescence (ex=340, em=440 nm) in a solution containing 0.2–0.4 mg ghost protein, 0.1 mM ouabain, 100 mM NaCl, 20 mM KCl, 6 mM MgCl2, 30 mM imidazole-HCl pH 7.0, 0.5 mM EDTA, 0.6 mM NADH, 1 mM pyruvate enol phosphate, excess pyruvate kinase-[…], 0.5 mM ATP, 0.5 mM EGTA and 4 ug/ml calmodulin. […] Na^+—K^+-ATPase can be monitored without CaCl2 and ouabain.

[4] = system: Na^+—K^+-ATPase in the ghosts; assay: Na+-K+-ATPase in erythrocyte ghosts; type: biochemical, human; settings: 0.9 mM
Description: as §2, §3, §4

[5] = system: T3, Ca^2+—Mg^2+-ATPase in skeletal muscle sarcoplasmic reticulum; assay: Ca2+-Mg2+-ATPase in skeletal muscle sarcoplasmic reticulum; type: biochemical; settings: 0.9 mM
T3 construct: G=ghosts and S=skeletal muscle sarcoplasmic reticulum; from tissue; host or cells: skeletal muscle sarcoplasmic reticulum
Description: as §2, §1

rat aortic rings = assay: Endothelium dependent relaxation of rat aorta rings precontracted with phenylephrine; settings: precontracted with 0.5 μM phenylephrine, 0.34 mM caloxin 2A1, reversed by L-NAME
Procedure: Rat aorta rings were hung in organ bath as previously described. The rings were contracted with submaximum (0.5 μM) phenylephrine before adding 0.34 mM caloxin 2A1 and 0.1 mM L-nitroarginylmethyl ester) as shown. Each experiment was replicated at least four times.
Inhibiting the PM Ca^2+ pump in vascular endothelium should increase cytosolic Ca^2+, thereby activating endothelial nitric oxide synthase to relax arteries (Rees et al. (1990); Sato et al. (1990)). […] Thus caloxin 2A1 produced the biological effect in the endothelium which was expected from its inhibiting PM Ca^2+-pump.
1.3. […] We anesthetized a rats by methoxyfluorane (Metofane) inhalation and removed its thoracic aorta as 3 mm rings. These tissues relax to 1 μM carbachol after they have been contracted with phenylephrine (0.5 to 2 μM). We initially tried to do these experiments in Na^+-free solution but the tissues gave very poor contractions to phenylephrine. In Na^+-free solution, the tissues contracted to 20–80 mM KCl but relaxation with carbachol was poor. We reverted to using phenylephrine but in Na^+-containing Krebs' solution.

PMCA4 = molecular target: T4, PMCA4 (Homo sapiens, UniProt P23634); assay: Ca2+-Mg2+-ATPase activity in microsomes of COS-M6 cells transfected with PMCA4; type: biochemical; settings: read-out: inhibition of PMCA4 Ca^2+—Mg^2+-ATPase
T4 construct: expressed in transfected cells; host or cells: COS-M6 cells, microsomes
T4 sequence (P23634 1-1241): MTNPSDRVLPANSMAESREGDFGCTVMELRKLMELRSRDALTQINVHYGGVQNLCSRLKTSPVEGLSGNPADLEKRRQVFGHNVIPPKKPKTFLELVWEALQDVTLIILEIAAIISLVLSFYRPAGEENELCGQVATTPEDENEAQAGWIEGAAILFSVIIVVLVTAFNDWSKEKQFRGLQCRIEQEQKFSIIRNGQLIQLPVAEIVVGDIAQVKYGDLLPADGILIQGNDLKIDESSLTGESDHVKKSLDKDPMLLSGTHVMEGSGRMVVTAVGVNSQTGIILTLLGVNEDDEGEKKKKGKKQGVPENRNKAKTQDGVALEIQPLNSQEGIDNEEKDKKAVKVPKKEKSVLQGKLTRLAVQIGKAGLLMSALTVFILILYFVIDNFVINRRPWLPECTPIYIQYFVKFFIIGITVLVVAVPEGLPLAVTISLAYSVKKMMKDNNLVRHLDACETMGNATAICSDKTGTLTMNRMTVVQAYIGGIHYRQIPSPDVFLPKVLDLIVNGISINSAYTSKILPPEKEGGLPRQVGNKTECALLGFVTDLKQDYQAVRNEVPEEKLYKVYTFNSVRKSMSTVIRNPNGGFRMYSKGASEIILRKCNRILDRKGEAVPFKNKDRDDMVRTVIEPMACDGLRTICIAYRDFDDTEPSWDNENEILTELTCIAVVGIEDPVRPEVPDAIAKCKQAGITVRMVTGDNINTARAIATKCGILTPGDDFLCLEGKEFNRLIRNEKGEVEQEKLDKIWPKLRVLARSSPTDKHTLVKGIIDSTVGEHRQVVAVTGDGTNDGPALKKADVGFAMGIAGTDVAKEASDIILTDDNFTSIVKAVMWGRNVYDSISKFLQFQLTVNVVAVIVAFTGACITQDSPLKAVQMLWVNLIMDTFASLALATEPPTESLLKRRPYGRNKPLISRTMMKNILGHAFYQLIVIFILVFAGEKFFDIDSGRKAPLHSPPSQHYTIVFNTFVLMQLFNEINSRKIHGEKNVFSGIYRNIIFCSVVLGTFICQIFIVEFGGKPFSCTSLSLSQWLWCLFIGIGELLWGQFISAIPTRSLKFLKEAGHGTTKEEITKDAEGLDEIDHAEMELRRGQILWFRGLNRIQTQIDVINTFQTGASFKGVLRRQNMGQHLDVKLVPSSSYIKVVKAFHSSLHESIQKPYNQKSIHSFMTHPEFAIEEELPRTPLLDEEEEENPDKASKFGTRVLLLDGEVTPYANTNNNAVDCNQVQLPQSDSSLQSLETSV
Description: (§5) PM Ca^2+-pump isoforms are encoded by 4 different genes. The inventors determined the effects of caloxin 2A1 on different isoforms. Cos M6 cells were transfected with this DNA using Fugene (purchased from Roche). Microsomes from SF9 cells expressing PMCA2 were a gift from Dr. A. Filoteo.
(§6) PMCA4 plasmid was transfected into COS-M6 cells. Thirty six to 48 hr later, microsomes were made from these cells and overexpression of the protein was confirmed using Western Blot. The Ca^2+—Mg^2+-ATPase activity in the microsomes was determined. The assay solutions included the following additional reagents: 0.05% Triton X-100, 5 mM sodium azide and 10 uM cyclopiazonic acid. Results: In a total of 22 determinations, the inhibition produced by 0.46,0.94 and 1.87 mM caloxin 2A1 on PMCA4 was 29, 47 and 58%, respectively.

PMCA2b = assay: Ca2+-Mg2+-ATPase activity in microsomes from SF9 cells expressing PMCA2; type: biochemical; settings: 1.87 mM; two experiments
Description: as §5, §6

T2 sequence (P23634 1-1205 isoform P23634-6): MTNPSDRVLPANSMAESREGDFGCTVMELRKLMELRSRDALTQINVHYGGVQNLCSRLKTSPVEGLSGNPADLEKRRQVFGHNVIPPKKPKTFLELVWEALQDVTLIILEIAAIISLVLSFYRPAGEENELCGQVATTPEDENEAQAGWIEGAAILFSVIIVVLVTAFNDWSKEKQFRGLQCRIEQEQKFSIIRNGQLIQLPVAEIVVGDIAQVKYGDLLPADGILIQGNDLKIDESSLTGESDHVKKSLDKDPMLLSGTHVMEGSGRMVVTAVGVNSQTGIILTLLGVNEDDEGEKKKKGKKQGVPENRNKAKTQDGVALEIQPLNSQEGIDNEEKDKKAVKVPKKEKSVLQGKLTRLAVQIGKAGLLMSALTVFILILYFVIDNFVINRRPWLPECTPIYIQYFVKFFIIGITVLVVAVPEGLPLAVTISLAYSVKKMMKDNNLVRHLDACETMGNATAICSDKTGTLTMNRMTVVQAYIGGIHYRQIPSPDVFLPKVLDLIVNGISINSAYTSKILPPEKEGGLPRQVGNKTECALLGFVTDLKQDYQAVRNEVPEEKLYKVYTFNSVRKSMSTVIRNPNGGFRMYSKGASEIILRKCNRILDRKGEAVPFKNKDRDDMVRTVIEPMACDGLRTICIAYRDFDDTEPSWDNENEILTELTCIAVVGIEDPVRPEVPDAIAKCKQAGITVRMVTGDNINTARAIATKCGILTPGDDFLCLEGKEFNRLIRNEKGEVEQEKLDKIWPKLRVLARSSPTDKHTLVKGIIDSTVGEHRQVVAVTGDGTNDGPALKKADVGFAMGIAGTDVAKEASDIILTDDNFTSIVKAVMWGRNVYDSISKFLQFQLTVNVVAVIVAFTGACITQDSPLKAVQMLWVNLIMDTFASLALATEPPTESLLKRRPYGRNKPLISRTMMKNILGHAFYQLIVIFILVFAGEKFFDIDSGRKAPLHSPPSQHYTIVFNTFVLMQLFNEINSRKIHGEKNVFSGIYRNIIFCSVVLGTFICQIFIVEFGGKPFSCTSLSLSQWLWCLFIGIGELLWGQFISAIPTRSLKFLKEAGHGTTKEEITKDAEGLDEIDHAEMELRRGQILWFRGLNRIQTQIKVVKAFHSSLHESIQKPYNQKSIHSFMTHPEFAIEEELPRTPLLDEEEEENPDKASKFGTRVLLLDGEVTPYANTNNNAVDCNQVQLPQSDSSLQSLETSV
T3 sequence (O14983 whole entry): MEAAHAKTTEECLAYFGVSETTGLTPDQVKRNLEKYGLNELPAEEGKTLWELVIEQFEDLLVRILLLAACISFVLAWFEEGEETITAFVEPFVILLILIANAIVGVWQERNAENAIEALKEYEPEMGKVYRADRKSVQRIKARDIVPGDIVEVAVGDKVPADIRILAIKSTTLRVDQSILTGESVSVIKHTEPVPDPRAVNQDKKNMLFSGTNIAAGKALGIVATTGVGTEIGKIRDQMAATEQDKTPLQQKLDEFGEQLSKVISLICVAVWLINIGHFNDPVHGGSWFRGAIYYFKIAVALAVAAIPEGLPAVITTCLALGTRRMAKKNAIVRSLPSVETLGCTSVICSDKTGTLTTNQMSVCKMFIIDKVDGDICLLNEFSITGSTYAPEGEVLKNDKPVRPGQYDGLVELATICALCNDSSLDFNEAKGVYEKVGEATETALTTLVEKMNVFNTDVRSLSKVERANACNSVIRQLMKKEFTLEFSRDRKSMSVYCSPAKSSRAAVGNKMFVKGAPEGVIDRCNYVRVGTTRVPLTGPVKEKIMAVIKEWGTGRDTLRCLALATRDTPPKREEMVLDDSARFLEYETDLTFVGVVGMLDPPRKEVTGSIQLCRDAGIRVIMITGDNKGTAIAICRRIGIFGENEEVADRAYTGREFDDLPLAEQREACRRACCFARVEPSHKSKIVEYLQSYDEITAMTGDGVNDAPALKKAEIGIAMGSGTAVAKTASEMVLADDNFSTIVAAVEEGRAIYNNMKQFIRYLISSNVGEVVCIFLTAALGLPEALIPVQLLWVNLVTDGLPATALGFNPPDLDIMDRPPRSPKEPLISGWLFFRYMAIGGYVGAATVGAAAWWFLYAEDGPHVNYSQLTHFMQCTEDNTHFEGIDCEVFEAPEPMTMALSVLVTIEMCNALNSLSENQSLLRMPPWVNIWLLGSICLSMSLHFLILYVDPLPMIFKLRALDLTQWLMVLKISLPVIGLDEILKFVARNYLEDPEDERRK

Substance | effect on erythrocyte ghost Ca^2+—Mg^2+-ATPase (in words) ([1]; concentration not given) | endothelium dependent relaxation of coronary arteries (pig coronary artery) | endothelium dependent relaxation of coronary arteries (pig coronary artery; listed as Caloxin 3A1) | effect on erythrocyte ghost Ca^2+—Mg^2+-ATPase (in words) ([1]; 0.9 mM peptide, FIG. 1B) | inhibition of acylphosphate formation [2] | inhibition of erythrocyte ghost Ca^2+—Mg^2+-ATPase ([1]; 0.9 mM peptide) | IC50 ([1]; human erythrocyte leaky ghosts, read-out: concentration producing 50% inhibition of erythrocyte leaky ghost Ca^2+—Mg^2+-ATPase) | effect on Mg^2+-ATPase in the ghosts [3] | effect on Na^+—K^+-ATPase in the ghosts [4] | effect on Ca^2+—Mg^2+-ATPase in skeletal muscle sarcoplasmic reticulum [5] | relaxation of rat aortic rings (rat aortic rings) | relaxation of rat aortic rings (rat aortic rings; listed as Caloxin 2A1) | inhibition at 460 µM (PMCA4; 0.46 mM) | inhibition at 940 µM (PMCA4; 0.94 mM) | inhibition at 1870 µM (PMCA4; 1.87 mM) | average inhibition of PMCA2b (PMCA2b)
Acetyl-DSHINNEPSRRRGGGK (Ac-DSHINNEPSRRRGGGK; listed as Homo sapiens) [caloxin 3A1, peptide isolated by phage display screening against PMCA874] | inhibits | endothelium dependent relaxation | produces an endothelium dependent relaxation |  |  |  |  |  |  |  |  |  |  |  |  | 
SWSSFPGSGGVSNPN-amide (SWSSFPGSGGVSNPN-NH2; listed as Homo sapiens) [randomized peptide, reference compound] |  |  |  | no effect | does not |  |  |  |  |  |  |  |  |  |  | 
VSNSNWPSFPSSGGG-NH2 [caloxin 2A1, VSNSNWPSFPSSGGG-amide] |  |  |  | significant (p<0.05) inhibition | inhibits the acylphosphate formation | 78±4% | 400 ± 100 µM | no effect | no effect | no effect | produced a relaxation | relaxed the aortic rings | 29% | 47% | 58% | 46%
